# Experimental data from the supplement of paper PMC10307832.
# Compound: O=c1ncccn1[C@@H]1O[C@H](CO)[C@@H](O)[C@H]1O [Zebularine] + CS(=O)(=O)CCNCc1ccc(-c2ccc3ncnc(Nc4ccc(OCc5cccc(F)c5)c(Cl)c4)c3c2)o1 [Lapatinib] (partner 2 µM)
# Test: relative viability (nuclei count vs DMSO), 5 days (fraction); higher = more cells survive
# Details: first compound 1 µM
# Procedure, shortened: (§1)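 Relative viability equals treated-well nuclei counts divided by vehicle-well nuclei counts. Counts came from 4× images of lung cancer cell lines grown in 1536-well plates for 5 days after pin-tool dosing on the day after seeding. Dosing used one drug alone or a fixed anchor-drug dose plus five library-drug doses (not always all listed) in √10 steps, and values are medians of duplicate plates.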
row,Cell Line,relative viability
1,NCI-H727,0.724
2,NCI-H1650,0.878
3,EBC-1,0.244
4,NCI-H1703,0.994
5,NCI-H1993,0.848
6,SW 1573,1.24
7,NCI-H838,1.19
8,NCI-H520,1.14
9,NCI-H2126,0.843
10,EMC-BAC-2,0.984

# Same assay, conditions: first compound 3.162 µM
row,Cell Line,relative viability
1,NCI-H727,0.797
2,NCI-H1650,0.618
3,EBC-1,0.197
4,NCI-H1703,0.979
5,NCI-H1993,0.691
6,SW 1573,0.773
7,NCI-H838,1.14
8,NCI-H520,0.863
9,NCI-H2126,0.774
10,EMC-BAC-2,0.964

# Same assay, conditions: first compound 10 µM
row,Cell Line,relative viability
1,NCI-H727,0.65
2,SW 1573,0.502
3,NCI-H838,0.632
4,NCI-H520,0.477
5,NCI-H2126,0.695
6,EMC-BAC-2,0.647

# Same assay, conditions: first compound 31.62 µM
row,Cell Line,relative viability
1,NCI-H727,0.948
2,NCI-H1650,1.08
3,EBC-1,0.205
4,NCI-H1703,1.52
5,NCI-H1993,0.718
6,SW 1573,1.23
7,NCI-H838,0.834
8,NCI-H520,0.277
9,NCI-H2126,0.76
10,EMC-BAC-2,0.968

# Same assay, conditions: first compound 100 µM
row,Cell Line,relative viability
1,NCI-H727,0.772
2,NCI-H1650,0.86
3,EBC-1,0.212
4,NCI-H1703,0.952
5,NCI-H1993,0.735
6,SW 1573,0.873
7,NCI-H838,0.382
8,NCI-H520,0.256
9,NCI-H2126,0.619
10,EMC-BAC-2,0.981

# Compound: CC(C)CCN1c2nc(Nc3cc(F)c(O)c(F)c3)ncc2N(C)C(=O)C1C [BI-D1870] + CS(=O)(=O)N1CCN(Cc2cc3nc(-c4cccc5[nH]ncc45)nc(N4CCOCC4)c3s2)CC1 [Pictilisib] (partner 1 µM)
# Test: as above
# Details: first compound 0.04 µM
# Procedure, shortened: as §1
row,Cell Line,relative viability
1,NCI-H727,0.425
2,NCI-H1650,0.632
3,EBC-1,0.459
4,NCI-H1703,0.256
5,NCI-H1993,0.864
6,SW 1573,0.6
7,NCI-H838,0.442
8,LCLC-103H,0.631
9,NCI-H520,0.317
10,NCI-H2126,0.556
11,EMC-BAC-2,0.626
12,ChaGo-K-1,0.757
13,NCI-H441,0.498

# Same assay, conditions: first compound 0.1265 µM
row,Cell Line,relative viability
1,NCI-H727,0.35
2,NCI-H1650,0.484
3,EBC-1,0.451
4,NCI-H1703,0.245
5,NCI-H1993,0.704
6,SW 1573,0.414
7,NCI-H838,0.421
8,LCLC-103H,0.573
9,NCI-H520,0.275
10,NCI-H2126,0.491
11,EMC-BAC-2,0.48
12,ChaGo-K-1,0.807
13,NCI-H441,0.374

# Same assay, conditions: first compound 0.4 µM
row,Cell Line,relative viability
1,NCI-H727,0.354
2,NCI-H1650,0.527
3,EBC-1,0.354
4,NCI-H1703,0.234
5,NCI-H1993,0.769
6,SW 1573,0.47
7,NCI-H838,0.529
8,LCLC-103H,0.563
9,NCI-H520,0.348
10,NCI-H2126,0.45
11,EMC-BAC-2,0.514
12,ChaGo-K-1,0.502
13,NCI-H441,0.518

# Same assay, conditions: first compound 1.265 µM
row,Cell Line,relative viability
1,NCI-H727,0.509
2,NCI-H1650,0.533
3,EBC-1,0.363
4,NCI-H1703,0.213
5,NCI-H1993,0.71
6,SW 1573,0.402
7,NCI-H838,0.498
8,LCLC-103H,0.573
9,NCI-H520,0.36
10,NCI-H2126,0.461
11,EMC-BAC-2,0.637
12,ChaGo-K-1,0.758
13,NCI-H441,0.466

# Same assay, conditions: first compound 4 µM
row,Cell Line,relative viability
1,NCI-H727,0.366
2,NCI-H1650,0.558
3,EBC-1,0.123
4,NCI-H1703,0.209
5,NCI-H1993,0.622
6,SW 1573,0.368
7,NCI-H838,0.574
8,LCLC-103H,0.494
9,NCI-H520,0.233
10,NCI-H2126,0.386
11,EMC-BAC-2,0.535
12,ChaGo-K-1,0.407
13,NCI-H441,0.492

# Compound: CC(C)CCN1c2nc(Nc3cc(F)c(O)c(F)c3)ncc2N(C)C(=O)C1C [BI-D1870]
# Test: relative viability (nuclei count vs DMSO), 5 days (fraction); higher = more cells survive
# Details: 0.04 µM
# Procedure, shortened: (§2)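 Acceptance criteria were a control CV below 25% and at least one doubling per plate. Lung cancer cell lines in 1536-well plates got five library-drug doses (not always all listed) √10 apart by pinning and were left 5 days with no medium change. Viability divides treated-well nuclei by vehicle-well nuclei and is the median across plates. Nuclei were counted by MetaXpress from 4× Hoechst images.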
row,Cell Line,relative viability
1,NCI-H2342,0.983
2,NCI-H1623,0.945
3,NCI-H727,1.1
4,NCI-H1650,0.9
5,EBC-1,0.995
6,NCI-H1703,0.92
7,NCI-H1993,1.03
8,SW 1573,1.14
9,NCI-H838,0.962
10,LCLC-103H,1.03
11,NCI-H520,0.963
12,NCI-H2126,1.05
13,EMC-BAC-2,1.1
14,NCI-H1648,0.877
15,ChaGo-K-1,1.05
16,NCI-H522,0.974
17,SW 900,1.03
18,NCI-H441,1.08

# Same assay, conditions: 0.1265 µM
row,Cell Line,relative viability
1,NCI-H2342,0.919
2,NCI-H1623,0.895
3,NCI-H727,0.888
4,NCI-H1650,0.765
5,EBC-1,0.889
6,NCI-H1703,0.708
7,NCI-H1993,0.876
8,SW 1573,0.896
9,NCI-H838,0.892
10,LCLC-103H,0.967
11,NCI-H520,0.79
12,NCI-H2126,0.889
13,EMC-BAC-2,1.01
14,NCI-H1648,0.777
15,ChaGo-K-1,0.991
16,NCI-H522,1.15
17,SW 900,0.95
18,NCI-H441,0.922

# Same assay, conditions: 0.4 µM
row,Cell Line,relative viability
1,NCI-H2342,1
2,NCI-H1623,1.19
3,NCI-H727,0.934
4,NCI-H1650,1
5,EBC-1,0.839
6,NCI-H1703,0.905
7,NCI-H1993,0.827
8,SW 1573,0.968
9,NCI-H838,0.958
10,LCLC-103H,0.94
11,NCI-H520,1.11
12,NCI-H2126,0.981
13,EMC-BAC-2,0.891
14,NCI-H1648,0.729
15,ChaGo-K-1,0.9
16,NCI-H522,1.04
17,SW 900,0.864
18,NCI-H441,0.888

# Same assay, conditions: 1.265 µM
row,Cell Line,relative viability
1,NCI-H2342,1.09
2,NCI-H1623,1.16
3,NCI-H727,0.79
4,NCI-H1650,0.96
5,EBC-1,0.654
6,NCI-H1703,1.02
7,NCI-H1993,1.15
8,SW 1573,0.857
9,NCI-H838,1.07
10,LCLC-103H,1.06
11,NCI-H520,0.927
12,NCI-H2126,1
13,EMC-BAC-2,1.01
14,NCI-H1648,0.89
15,ChaGo-K-1,0.962
16,NCI-H522,1.08
17,SW 900,1.02
18,NCI-H441,1.1

# Same assay, conditions: 4 µM
row,Cell Line,relative viability
1,NCI-H2342,1.15
2,NCI-H1623,0.911
3,NCI-H727,0.91
4,NCI-H1650,0.807
5,EBC-1,0.361
6,NCI-H1703,0.806
7,NCI-H1993,0.702
8,SW 1573,0.61
9,NCI-H838,0.992
10,LCLC-103H,0.838
11,NCI-H520,0.851
12,NCI-H2126,0.854
13,EMC-BAC-2,0.904
14,NCI-H1648,0.869
15,ChaGo-K-1,0.868
16,NCI-H522,0.841
17,SW 900,0.894
18,NCI-H441,1.17

# Compound: O=c1ncccn1[C@@H]1O[C@H](CO)[C@@H](O)[C@H]1O [Zebularine]
# Test: as above
# Details: 1 µM
# Procedure, shortened: as §2
row,Cell Line,relative viability
1,NCI-H2342,1.01
2,NCI-H1623,0.923
3,NCI-H727,0.906
4,NCI-H1650,1.03
5,EBC-1,1.1
6,NCI-H1703,0.856
7,NCI-H1993,1.18
8,SW 1573,1.04
9,NCI-H838,1.05
10,LCLC-103H,0.959
11,NCI-H520,1.11
12,NCI-H2126,1.06
13,EMC-BAC-2,1.07
14,NCI-H1648,1.16
15,ChaGo-K-1,1.03
16,NCI-H522,0.9
17,SW 900,1.04
18,NCI-H441,1.26

# Same assay, conditions: 3.162 µM
row,Cell Line,relative viability
1,NCI-H2342,0.953
2,NCI-H1623,0.895
3,NCI-H727,0.811
4,NCI-H1650,0.904
5,EBC-1,0.811
6,NCI-H1703,0.815
7,NCI-H1993,0.945
8,SW 1573,0.897
9,NCI-H838,0.962
10,LCLC-103H,0.987
11,NCI-H520,0.957
12,NCI-H2126,0.884
13,EMC-BAC-2,0.994
14,NCI-H1648,1.06
15,ChaGo-K-1,0.97
16,NCI-H522,1.08
17,SW 900,0.839
18,NCI-H441,0.852

# Same assay, conditions: 10 µM
row,Cell Line,relative viability
1,NCI-H2342,0.757
2,NCI-H1623,0.86
3,NCI-H727,0.726
4,NCI-H1650,0.766
5,EBC-1,0.842
6,NCI-H1703,0.606
7,NCI-H1993,0.736
8,SW 1573,0.721
9,NCI-H838,0.753
10,LCLC-103H,0.867
11,NCI-H520,0.52
12,NCI-H2126,0.879
13,EMC-BAC-2,0.775
14,NCI-H1648,0.563
15,ChaGo-K-1,0.525
16,NCI-H522,0.87
17,SW 900,0.661
18,NCI-H441,0.502

# Same assay, conditions: 31.62 µM
row,Cell Line,relative viability
1,NCI-H2342,0.984
2,NCI-H1623,0.894
3,NCI-H727,0.976
4,NCI-H1650,1.15
5,EBC-1,1.11
6,NCI-H1703,0.899
7,NCI-H1993,0.963
8,SW 1573,1.01
9,NCI-H838,0.692
10,LCLC-103H,1.04
11,NCI-H520,0.388
12,NCI-H2126,0.927
13,EMC-BAC-2,0.981
14,NCI-H1648,0.668
15,ChaGo-K-1,0.317
16,NCI-H522,0.928
17,SW 900,0.843
18,NCI-H441,0.309

# Same assay, conditions: 100 µM
row,Cell Line,relative viability
1,NCI-H2342,0.853
2,NCI-H1623,0.531
3,NCI-H727,0.92
4,NCI-H1650,0.727
5,EBC-1,0.974
6,NCI-H1703,0.667
7,NCI-H1993,0.774
8,SW 1573,0.77
9,NCI-H838,0.352
10,LCLC-103H,0.842
11,NCI-H520,0.26
12,NCI-H2126,0.648
13,EMC-BAC-2,1.06
14,NCI-H1648,0.708
15,ChaGo-K-1,0.244
16,NCI-H522,0.847
17,SW 900,0.651
18,NCI-H441,0.272
